In US20240173419A1, “CDK2 DEGRADERS AND USES THEREOF” (Kymera Therapeutics, Inc., priority 2022, published 2024):

Target: T1, CDK2 (Homo sapiens, UniProt P24941)
T1 construct: endogenous in cells; host or cells: MKN1 cells
Assay: CDK2 degradation in MKN1 cells (AlphaLISA)
Type: cell-based
Set-up: key to CDK2 degradation 14 h: Mean external-Abs DC50 (nM): A (<100 nM); B (≥100-500 nM); C (>500-1000 nM); D (>1000 nM); E (not achieved)
Settings: for DC50: read-out: CDK2 degradation 14 h: Mean external-Abs DC50; for Dmax: MKN-1, 14 h incubation
Procedure: Degradation of CDK2 in MKN1 cells was measured using AlphaLISA technology (PerkinElmer ALSU-TCDK2-A10K). MKN1 cells were maintained in RPMI1640 medium containing 10% FBS+1× penn/strep. Cells were seeded in 96-well plates (Corning 3599) at a density of 2e4 cells per well in 80 μL of fresh complete growth medium. Cells were incubated overnight at 37° C., 5% CO2. Compounds were then added to the cell assay plates with a final top concentration of 10 μM in a 1:5 dilution series with a total of 11 doses (0.001 nM-10 μM). The final volume per well was 160 μL and the final DMSO concentration was 0.1%. Additionally, wells containing no cells and only complete growth medium were also maintained on the cell assay plates (‘no cell’ wells) and processed along with experimental wells. After 14 hour-incubation at 37° C., 5% CO2, the medium was removed and the cells were washed once with 100 μL of 1×PBS. Following removal of PBS, 40 μL of 1× Lysis Buffer containing 1× protease and phosphatase inhibitors (Roche 4693116001; Roche 4906837001) were added to each well. The cell assay plate was agitated on a plate shaker at 350 rpm for 10 minutes at room temperature. 10 μL of each cell lysate were transferred to a 384-well plate (PerkinElmer 6007290). 10 μL of control lysates (from PerkinElmer ALSU-TCDK2-A10K kit) were added to separate wells to generate a standard curve. Activation Buffer was prepared by diluting 25-fold in combined Reaction Buffer 1 and Reaction Buffer 2. Acceptor Beads were diluted 50-fold in combined Reaction Buffers. 5 μL of Acceptor Mix were added to each well. The plate was sealed with Topseal-Aadhesive film, covered with foil, and incubated in the dark for 1 hour at room temperature. Under subdued light, the Donor Beads were diluted 50-fold in Dilution Buffer. 5 μL of Donor Mix were added to each well under subdued light. The plate was sealed with Topseal-A adhesive film, covered with foil, and incubated in the dark for 1 hour at room temperature. Under subdued light, the plates were analyzed on an EnVision Microplate Reader (PerkinElmer Model 2009-0030). The average signal from ‘no cell’ wells was subtracted from the signal in experimental wells prior to calculating Alpha signal for test compounds and negative control (0.100 DMSO). The data were analyzed using Xlfit (v5.3. 1.3) and the dose-dependent CDK2 degradation data were fit using a four-parameter logistic model to calculate DC50.

| Compound | CDK2 degradation 14 h: Average Dmax % (14 h incubation) | DC50 (14 h incubation) [nM] | Dmax [%] | CDK2 degradation 14 h: Mean external-Abs DC50 (nM) (14 h incubation) |
| --- | --- | --- | --- | --- |
| [2H]C(C)(COC1CCC(CN2CCN(c3ccc4c(c3F)n(C)c(=O)n4C3CCC(=O)NC3=O)CC2)CC1)NS(=O)(=O)c1ccc(Nc2ncc(C(F)(F)F)c(C3CCC(C)(O)CC3)n2)c(C)c1 (racemic) [I-859] | A (A (>75% o)) |  |  |  |
| Cc1cc(S(=O)(=O)NC2CCC(CN3CCN(c4ccc([C@H]5CCC(=O)NC5=O)c(Cl)c4)CC3)CC2)ccc1Nc1ncc(C(F)(F)F)c(N2CCC[C@](C)(O)C2)n1 (single isomer, unassigned) [I-817] |  | 100 to 500 | > 75 |  |
| Cc1cc(S(=O)(=O)CCCO[C@H]2CC[C@H](CN3CCC(c4ccc5c(c4)n(C)c(=O)n5C4CCC(=O)NC4=O)CC3)CC2)ccc1Nc1ncc2cc(Cl)c(=O)n(C3CCCC3)c2n1 (stereo partly shown) [I-3, 3-[5-[1-[[4-[3-[4-[(6-Chloro-8-cyclopentyl-7-oxo-pyrido[2,3-d]pyrimidin-2-yl)amino]-3-methyl-phenyl]sulfonylpropoxy]cyclohexyl]methyl]-4-piperidyl]-3-methyl-2-oxo-benzimidazol-1-yl]piperidine-2,6-dione] |  | < 100 | > 75 |  |
| Cc1cc(S(=O)(=O)CCCO[C@H]2CC[C@H](CN3CCC(c4ccc5c(c4)n(C4CCC(=O)NC4=O)c(=O)n5C)CC3)CC2)ccc1Nc1ncc2cc(C(F)F)c(=O)n(C(C)C)c2n1 (stereo partly shown) [I-6] | B (B (>50% -75%)) |  |  | E |
| Cc1cc(S(=O)(=O)C2CCN(CCN3CCC(c4cccc5c4n(C)c(=O)n5C4CCC(=O)NC4=O)CC3)CC2)ccc1Nc1ncc2cc(Cl)c(=O)n(C(C)C)c2n1 (stereo not shown) [I-8] | B (B (>50% -75%)) | 100 to 500 |  |  |
| Cc1cc(S(=O)(=O)C2CC3(CCN(CC4CCN(c5ccc(NC6CCC(=O)NC6=O)cc5)CC4)CC3)C2)ccc1Nc1ncc2cc(Cl)c(=O)n(C3CCCC3)c2n1 (stereo not shown) [I-37] | B (B (>50% -75%)) | 100 to 500 |  |  |
| Cc1cc(S(=O)(=O)C2CC3(CCN(CC4CCN(c5ccc6c(c5F)n(C)c(=O)n6C5CCC(=O)NC5=O)CC4)CC3)C2)ccc1Nc1ncc2cc(Cl)c(=O)n(C3CCCC3)c2n1 (stereo not shown) [I-38] | A (A (>75% o)) | < 100 |  |  |
| Cc1cc(S(=O)(=O)C2CCC(N3CC4(CCN(c5cccc6c5n(C)c(=O)n6C5CCC(=O)NC5=O)CC4)C3)CC2)ccc1Nc1ncc2c(n1)N(C1CCCC1)C(=O)C21CC1 (stereo not shown) [I-39] | B (B (>50% -75%)) | < 100 |  |  |
| Cc1cc(S(=O)(=O)C2CC3(CCN(CCC4CCN(c5cccc6c5n(C)c(=O)n6C5CCC(=O)NC5=O)CC4)CC3)C2)ccc1Nc1ncc2cc(Cl)c(=O)n(C3CCCC3)c2n1 (stereo not shown) [I-40] | A (A (>75% o)) | < 100 |  |  |
| Cc1cc(S(=O)(=O)C2CC3(CCN(CC4CCN(c5cccc6c5n(C)c(=O)n6C5CCC(=O)NC5=O)CC4)CC3)C2)ccc1Nc1ncc2c(n1)N(C1CCCC1)C(=O)C21CC1 (stereo not shown) [I-42] | A (A (>75% o)) | < 100 |  |  |
| Cc1cc(S(=O)(=O)C2CCN(CCN3CCN(c4cccc5c4n(C)c(=O)n5C4CCC(=O)NC4=O)CC3=O)CC2)ccc1Nc1ncc2cc(Cl)c(=O)n(C3CCCC3)c2n1 (stereo not shown) [I-43] | A (A (>75% o)) | 100 to 500 |  |  |
| Cc1cc(S(=O)(=O)C2CC3(CCN(CC4CCN(c5cccc6c5n(C)c(=O)n6C5CCC(=O)NC5=O)CC4)CC3)C2)ccc1Nc1ncc2cc(Cl)c(=O)n(C3CCCC34CC4)c2n1 (stereo not shown) [I-44] | A (A (>75% o)) | < 100 |  |  |
| Cc1cc(S(=O)(=O)C2CC3(CCN(CC4(F)CCN(c5cccc6c5n(C)c(=O)n6C5CCC(=O)NC5=O)CC4)CC3)C2)ccc1Nc1ncc2cc(Cl)c(=O)n(C3CCCC3)c2n1 (stereo not shown) [I-45] | A (A (>75% o)) | 100 to 500 |  |  |
| Cc1cc(S(=O)(=O)C2CCC(CN(C)C3CCN(c4cccc5c4n(C)c(=O)n5C4CCC(=O)NC4=O)CC3)CC2)ccc1Nc1ncc(C(F)(F)F)c(-c2cnn(C)c2)n1 (stereo not shown) [I-46] | A (A (>75% o)) | < 100 |  |  |
| Cc1cc(S(=O)(=O)C2CCN(CCCN3CCN(c4cccc5c4n(C)c(=O)n5C4CCC(=O)NC4=O)CC3)CC2)ccc1Nc1ncc2cc(Cl)c(=O)n(C(C)C)c2n1 (stereo not shown) [I-47] | A (A (>75% o)) | < 100 |  |  |
| Cc1cc(S(=O)(=O)C2CCN(C(=O)CN3CCN(c4cccc5c4n(C)c(=O)n5C4CCC(=O)NC4=O)CC3)CC2)ccc1Nc1ncc2cc(Cl)c(=O)n(C3CCCC3)c2n1 (stereo not shown) [I-48] | B (B (>50% -75%)) | < 100 |  |  |
| Cc1cc(S(=O)(=O)C2CCN(CCN3CCN(c4cccc5c4n(C)c(=O)n5C4CCC(=O)NC4=O)CC3)CC2)ccc1Nc1ncc2c(n1)N(C1CCCC1)C(=O)C21CC1 (stereo not shown) [I-50, 3-[4-[4-[2-[4-[4-[(7′-Cyclopentyl-6′-oxo-spiro[cyclopropane-1,5′-pyrrolo[2,3-d]pyrimidine]-2′-yl)amino]-3-methyl-phenyl]sulfonyl-1-piperidyl]ethyl]piperazin-1-yl]-3-methyl-2-oxo-benzimidazol-1-yl]piperidine-2,6-dione] |  | < 100 | > 75 |  |
| Cc1cc(S(=O)(=O)C2CCN(C3CC4(CCN(c5cccc6c5n(C)c(=O)n6C5CCC(=O)NC5=O)CC4)C3)CC2)ccc1Nc1ncc2c(n1)N(C1CCCC1)C(=O)C21CC1 (stereo not shown) [I-52] | B (B (>50% -75%)) | 100 to 500 |  |  |
| Cc1cc(S(=O)(=O)[C@H]2CC[C@H](CN(C)C3CCN(c4cccc5c4n(C)c(=O)n5C4CCC(=O)NC4=O)CC3)CC2)ccc1Nc1ncc2c(n1)N(C1CCCC1)C(=O)C21CC1 (stereo partly shown) [I-53] | A (A (>75% o)) | < 100 |  |  |

Further lines, results first:

| CDK2 degradation 14 h: Average Dmax % (14 h incubation) | DC50 (14 h incubation) [nM] | Dmax [%] | CDK2 degradation 14 h: Mean external-Abs DC50 (nM) (14 h incubation) | Compound |
| --- | --- | --- | --- | --- |
| B (B (>50% -75%)) | < 100 |  |  | Cc1cc(S(=O)(=O)NC(C)COC2CN(CC3CCN(c4ccc5c(c4F)n(C)c(=O)n5C4CCC(=O)NC4=O)CC3)C2)ccc1Nc1ncc(C(F)(F)F)c(C2CCC(C)(O)CC2)n1 (racemic) [I-852] |
|  | < 100 |  |  | Cc1cc(S(=O)(=O)NC(C)COC2CCC(CN3CCN(c4ccc5c(c4F)n(C)c(=O)n5C4CCC(=O)NC4=O)CC3)CC2)ccc1Nc1ncc(C(F)(F)F)c(C2CCC(C)(O)CC2)n1 (racemic) [I-859] |
|  | < 100 | > 75 |  | Cc1cc(S(=O)(=O)NC2CCC(CN3CCN(c4ccc([C@@H]5CCC(=O)NC5=O)c(Cl)c4)CC3)CC2)ccc1Nc1ncc(C(F)(F)F)c(N2CCC[C@](C)(O)C2)n1 (single isomer, unassigned) [I-809] |
| B (B (>50% -75%)) | < 100 |  |  | Cc1cc(S(=O)(=O)CCCO[C@H]2CC[C@H](CN3CCC(c4ccc5c(c4)n(C4CCC(=O)NC4=O)c(=O)n5C)CC3)CC2)ccc1Nc1nccc(-c2cnc(C)n2C(C)C)n1 (stereo partly shown) [I-4] |
| A (A (>75% o)) | < 100 |  |  | Cc1cc(S(=O)(=O)C2CCN(CCN3CCN(c4cccc5c4n(C)c(=O)n5C4CCC(=O)NC4=O)CC3)CC2)ccc1Nc1ncc2cc(Cl)c(=O)n(C(C)C)c2n1 (stereo not shown) [I-7] |
| A (A (>75% o)) | < 100 |  |  | Cc1cc(S(=O)(=O)C2CCN(C3CCN(CC4CCN(c5cccc6c5n(C)c(=O)n6C5CCC(=O)NC5=O)CC4)CC3)CC2)ccc1Nc1ncc2cc(Cl)c(=O)n(C(C)C)c2n1 (stereo not shown) [I-10] |
| A (A (>75% o)) | < 100 |  |  | Cc1cc(S(=O)(=O)C2CCN(CCC3CCN(c4cccc5c4n(C)c(=O)n5C4CCC(=O)NC4=O)CC3)CC2)ccc1Nc1ncc2cc(Cl)c(=O)n(C(C)C)c2n1 (stereo not shown) [I-11] |
| A (A (>75% o)) | < 100 |  |  | Cc1cc(S(=O)(=O)C(C)CCO[C@H]2CC[C@H](CN3CCC(c4ccc5c(c4)n(C4CCC(=O)NC4=O)c(=O)n5C)CC3)CC2)ccc1Nc1ncc2cc(Cl)c(=O)n(C3CCCC3)c2n1 (stereo partly shown) [I-12] |
| A (A (>75% o)) | < 100 |  |  | Cc1cc(S(=O)(=O)C2CCC(N3CCC(CN(C)c4cccc5c4n(C)c(=O)n5C4CCC(=O)NC4=O)CC3)CC2)ccc1Nc1ncc2cc(Cl)c(=O)n(C3CCCC3)c2n1 (stereo not shown) [I-33] |
| B (B (>50% -75%)) | < 100 |  |  | Cc1cc(S(=O)(=O)C2CC(N3CCC4(CC3)CN(c3cccc5c3n(C)c(=O)n5C3CCC(=O)NC3=O)C4)C2)ccc1Nc1ncc2cc(Cl)c(=O)n(C3CCCC3)c2n1 (stereo not shown) [I-35] |
| B (B (>50% -75%)) | < 100 |  |  | Cc1cc(S(=O)(=O)C2CC3(CCN(CC4CCN(c5ccc(NC6CCC(=O)NC6=O)cc5F)CC4)CC3)C2)ccc1Nc1ncc2cc(Cl)c(=O)n(C3CCCC3)c2n1 (stereo not shown) [I-36] |
